Experimental data taken from a melting point compilation (Tetko et al.; mined from patent text by program, amines drawn as free bases though some values may be those of a salt).

Structure (SMILES) | melting point [°C]
CN(C)C1(c2ccccc2)CCC(CNCCc2c[nH]c3ccccc23)CC1 (stereo not given) | 78 to 83
Cc1cccc(NC(=O)NC2N=C(C3CCCC3)c3ccccc3N(Cc3ncccc3C)C2=O)c1 (racemic) | 198 to 199
O=S(=O)(c1ccc(O)cc1)c1ncsc1-c1ccccc1 | 195
Cc1cc(C)cc(Oc2cccc([N+](=O)[O-])n2)c1 | 94 to 95
O=C(O)c1cc(OCc2ccccc2)c(C(=O)c2c(OCc3ccccc3)cccc2C(=O)OCc2ccccc2)c(OCc2ccccc2)c1 | 151 to 156
O=C(CSc1nc[nH]n1)c1ccccc1 | 119 to 120
CC(=O)Oc1ccc(-c2cnc(N(S(=O)(=O)Cc3ccccc3)S(=O)(=O)Cc3ccccc3)c(Cc3ccccc3)n2)cc1 | 84 to 86.5
C[C@@](O)(C(=O)Nc1ccc(S(=O)(=O)c2ccc(F)cc2)cc1Cl)C(F)(F)F | 131 to 133
NC(=O)c1cnn(C2OC(CO)C(O)C2O)n1 (stereo not given) | 150 to 151
Cc1cc(-c2ncn3c(C(F)(F)F)cc(-c4ccc(C(F)(F)F)c(OCC(F)(F)F)c4)nc23)ccn1 | 189
O=C1c2ccccc2C(=O)N1CC1CCOC1 (stereo not given) | 114 to 118
Cc1nc[nH]c1C(=O)OC(C)C | 188 to 190
CCCCC1C(C(=O)OCC)C(O)(C(F)(F)F)NC(O)(C(F)(F)F)C1C(=O)OCC (stereo not given) | 77 to 80
CC(=O)Nc1nc2c(sc(=O)n2C2OC(COC(C)=O)C(OC(C)=O)C2OC(C)=O)c(=O)[nH]1 (stereo not given) | 247 to 248
CN1CCCC(Nc2nc3ccccc3[nH]2)CC1 (stereo not given) | 168
N#Cc1ccc(COc2ccc(CC(NC(=O)c3cn4ccc(-c5ccc(Cl)cc5)cc4n3)C(=O)O)cc2)cc1 (stereo not given) | 263
COc1nc(C)nc(NC(=O)NS(=O)(=O)c2ccccc2C(=O)O)n1 | 157 to 158
CC(C)(C)OC(=O)N1CCC(O)(CS)CC1 | 54 to 55
O=C(O)c1cc(Br)c(Cl)s1 | > 200
CC(C)C(=O)C(=CC(=O)c1ccc(Cl)cc1)n1cncn1 | 128 to 130
Cn1nc(-c2cccc(-n3ncc4cc(C(C)(C)C)cc(F)c4c3=O)c2CO)cc(Nc2cnc([C@H](O)CO)cn2)c1=O | 218 to 224
Cn1ccn(CC#CCn2ccnc2)c1=O | 106 to 109
C=CCN(CC=C)Cc1nc(-c2ncn3c2[C@@H]2CCN2C(=O)c2c-3ccc(F)c2Cl)no1 | 103 to 104
Cc1c(-c2ccccc2)c(N2CC[C@H](N(C)C)C2)c2oc(-c3cnn(C)c3)nc2c1C#N | 214 to 222

Structure (SMILES) | melting point [°C]
CC(=O)N[C@@H]1c2cc(C#N)ccc2CC(C)(C)[C@H]1O (relative stereo) | 203 to 205
N#Cc1cc2c(cn1)CCCC2 | 56 to 59
CSc1nnc(COc2cc(C(C)(C)C)c(O)c(C(C)(C)C)c2)s1 | 128 to 130
COC(=O)c1ccccc1NC(=S)NN(C)C | 149 to 152
Cn1nc(-c2c(F)cccc2F)nc1-c1ccc(OCc2ccc(C(F)(F)F)cc2)c(Cl)c1 | 171 to 177
O=[N+]([O-])c1cccc(Nc2nc(Cl)nc(NC3CCCCCC3)n2)c1 | 82
CCC(C(O)c1ccc(Cl)cc1)n1ncn(-c2ccc(N3CCN(C(=O)c4ccccn4)CC3)nc2)c1=O (stereo not given) | 210
COc1ccc(C#N)cc1C=O | 115 to 118
O=c1[nH]c(=O)n(CCCCBr)c2ncccc12 | 139 to 141
O=[N+]([O-])c1cnn2c1-c1ccccc1NC2C=Cc1ccccc1 (stereo not given) | 171 to 173
O=C(NC(CS)Cc1ccccc1)NC(CS)Cc1ccccc1 (stereo not given) | 136 to 138
Cc1cccc2c(-c3ccc(Cl)cc3)onc12 | 134 to 136
Cc1oc(-c2ccc(C(F)(F)F)cc2)nc1-c1ccc(-c2cc(Br)c(OC(Cc3ccccc3)C(=O)O)c(Br)c2)cc1 (stereo not given) | 241 to 243
O=C(O)c1cnc(S)n1C(c1ccccc1)c1ccccc1 | 158
Nc1c(NC(=O)CC23CCCN2CCC3)cnc2ccccc12 | 205 to 209
COc1ccc(-n2cnc3cc(N)ccc32)cc1 | 44 to 45
COc1c(C(C)(C)C)cc(C=C2CCON(C)C2=O)cc1C(C)(C)C | 119 to 121
O=S(=O)(c1ccccc1)n1c(C(O)c2ccoc2)cc2ccncc21 (stereo not given) | 168 to 171
CC12CCC3C(CCC4C(O)CCCC43C)C1CCC2OC1CCCCO1 (stereo not given) | 167 to 170
Cn1cc(S(=O)(=O)Cl)c(=O)c2cc(F)ccc21 | > 300
O=C1CC2CCC(=O)N2c2cc(O)cc(O)c21 (stereo not given) | 254 to 256
Fc1ccc(-c2nc(SCCCCSc3nc(-c4ccc(F)cc4)c(-c4ccc(F)cc4)[nH]3)[nH]c2-c2ccc(F)cc2)cc1 | 172 to 174
CC(C)CCCc1c(C(C)C)nc(C(C)C)c(CO)c1-c1ccc(F)cc1 | 101 to 103
C#Cc1ncn2c1CN(C)C(=O)c1cc(F)ccc1-2 | 207 to 208

Now from value to compound:

melting point [°C] | Structure (SMILES)
177 to 179 | O=C(O)COc1cc(F)c(-c2ccccc2)cc1C(=S)NCc1cccc([N+](=O)[O-])c1
124 to 125 | COc1cc(C(=O)N(C(C)C)C2CCCCC2)ccc1Cn1c(CN(C)C)nc2cccnc21
272 | Cn1ncc2[nH]c3ccc(Cc4ccccc4C(N)=O)cc3c(=O)c21
89 to 90 | Nc1sc2c(c1C(=O)c1ccc(I)cc1)CCN(C(=O)Nc1ccccc1)C2
60 to 65 | COC(=O)[C@H](Cc1ccc(OCCN2CCCCCC2)cc1)NC(=O)[C@@H]1CCCN1S(=O)(=O)c1ccc(C)cc1
74 to 77 | CCOC(=O)COc1ccc2[nH]ccc2c1
191 to 192 | CN1CCN(c2cccc3c2C[C@H](NC(=O)c2ccc(Cc4ccccc4)cc2)CC3)CC1
120 to 121 | Clc1ccc2c(c1)C(c1ccccc1Cl)=NCc1cncnc1-2
188 to 189 | CC(=O)c1cc(NC(=O)c2ccccc2)cc(C(C)=O)c1
236 | Cc1ccn2c(=O)c(CCN3CCC(c4c[nH]c5ccccc45)CC3)c(C)nc2c1
197 to 198 | CC(C)(CC(O)(Cn1cc(Br)c(=O)c2sccc21)C(F)(F)F)c1cccc2c1OCO2 (stereo not given)
144 | Cc1c(O)ccc(C(=O)c2cccs2)c1C
149 to 150 | COc1ccc2c(c1)[C@H]1Cc3c(cc(C)c(OC)c3C)[C@H]1N2 (relative stereo)
135 | O=S(=O)(c1cccs1)N(CC1CC1)c1cccc2cc(-c3ncc(CCl)s3)[nH]c12
69 to 70 | COc1ccc(C(CCCCCCC(=O)O)=NOCc2ccc(OCc3nc(-c4ccccc4)oc3C)cc2)cc1
192 to 194 | CCOC(=O)CCn1c(=O)[nH]c2ccccc2c1=O
164 to 166 | O=Cc1cc2c(ccc3ccoc32)c2ccccc12
> 275 | O=c1ccc(S(=O)(=O)c2cc3c(=O)[nH]ccc3o2)n[nH]1
115 to 117 | OC1(c2ccc(C(F)(F)F)cc2)CCN(Cc2ccccc2)CC1
81 to 82 | COc1cc(CCCCCC2OCCO2)ccc1OCc1nc(-c2ccccc2)oc1C
186 to 187 | COCCNC(=O)c1cccc(-c2cccc3cc(COc4cc(C(F)(F)F)ccn4)sc23)c1
114 to 115 | COc1ccc(CNc2ccccc2C(=O)Nc2ccc(F)c(C(F)(F)F)c2)cn1
101 to 102 | CCOC(=O)[C@H](C)NCC(=O)Nc1c2c(nc3ccccc13)CCCC2
118 to 120 | CCOC(=O)c1cccc(CN2CCN(c3nc(C)c(C(=O)NCc4ccccc4)s3)C2=O)c1

melting point [°C] | Structure (SMILES)
73 to 74 | O=C(Cl)c1cc(OCc2ccccc2)cc(OCc2ccccc2)c1
245 to 246 | O=C(CN1C(=O)C2(COc3cc4c(cc32)CCO4)c2c(Br)cccc21)Nc1ccccc1F (stereo not given)
232 to 235 | CC1CCc2c(N3CCN(S(=O)(=O)C(F)(F)F)CC3)c(Cl)cc3c(=O)c(C(=O)O)cn1c23 (stereo not given)
294 to 296 | COc1ccc2c(c1)C(=O)c1c-2c(O)nc2ccccc12
130 to 133 | CCOc1cc2c(cn1)[nH]c1ccccc12
168 to 171 | CCCc1c2nc(C(=O)OCC)ccc2cc2c(=O)cc(C(=O)OCC)oc12
208 to 212 | CC(Oc1ccc(C(=O)c2ccc(O)cc2)c(Cl)c1Cl)C(=O)O (stereo not given)
140 to 141 | CCOc1cc(C(C)C)c2c(c1)S(=O)(=O)N(COC(=O)c1c(Cl)cccc1Cl)C2=O
160 to 161 | COc1ccc(NC(=O)c2cc(OC)c(OC)c(OC)c2)cc1
185 to 187 | CCc1cccc(C)c1NC(=O)N=C1NCCN1
158 to 159 | CCC(C)c1ccc(-n2c(-c3cc(C)c(OCCO)c(C)c3)nc3c(OC)cccc3c2=O)cc1 (stereo not given)
< 40 | CC(=O)O[C@@H]1CC(c2ccccc2)(c2ccccc2)[C@@H]2CN(Cc3ccccc3)C[C@@H]2C1=O (racemic)
290 | CC1(C)CCC(C)(C)c2cc3oc(-c4ccc(C(=O)O)cc4)nc3cc21
122 | Cc1ccc(C(=O)CCC(=O)c2ccccc2)s1
141 to 145 | CC(=O)C1=C(C)NC(C)=C(C(=O)CCCCCCCN2CCC(c3ccccc3)(c3ccccc3)CC2)C1c1cccc([N+](=O)[O-])c1 (stereo not given)
191 to 193 | CCOC1(OCC)CCc2c(ccc3c(=O)c4cc(C(=O)O)ccc4oc23)O1
196 to 198 | CN1CCC(c2cccc3c2C[C@H](NC(=O)c2ccc(N4CCOCC4)cc2)CC3)CC1
172 to 173 | CCCCN1CCn2c1nc(C(=O)NCc1ccc(F)cc1-n1cnc(C)n1)c(OCc1ccccc1)c2=O
175 | CCc1ccc2c(c1)C=Cc1cc(C)ccc1C2c1cn(-c2ccnc(N3CCCC3C(=O)O)n2)c(=O)[nH]c1=S (stereo not given)
164 | CCOC(=O)C(=CNc1ccc(C2=NNC(=O)CC2)cc1)C(=O)OCC
143 to 144 | Nc1cc(Br)ccc1C(=O)NCc1ccc(Br)cc1F
213 to 215 | CC(=O)c1ccc(NCc2c(O)ccc3c2CCCO3)cc1
137 to 138 | Cc1ccc(Cc2cnc(CCCOc3cccc(CN4CCCCC4)c3)[nH]c2=O)cn1
